Assay [1] has as its target Serine/threonine-protein kinase pim-3 (Homo sapiens, UniProt Q86V86). Nature of the assay: ATP Depletion Assay: The activity of PIM3 is measured using a luciferase-luciferin based ATP detection reagent to quantify ATP depletion resulting from kinase-catalyzed phosphoryl transfer to a peptide substrate. Compounds to be tested are dissolved in 100% DMSO and directly distributed into white 384-well plates at 0.5 uA per well. To start the reaction, 10 ul of 10 nM Pim3 kinase and 200 uM BAD peptide (RSRHSSYPAGT-OH) in assay buffer (50 mM HEPES pH 7.5, 5 mM MgCl2, 1 mM DTT, 0.05% BSA) is added into each well. After 15 minutes, 10 ul of 80 uM ATP in assay buffer is added. Final assay concentrations are […], 40 uM ATP, 100 uM BAD peptide and 2.5% DMSO. The reaction is performed until approximately 50% of the ATP is depleted, then stopped by the addition of 20 ul KinaseGlo Plus (Promega Corporation) solution. The stopped reaction is incubated for 10 minutes and the remaining ATP detected via luminescence on the Victor2 (Perkin Elmer).

Assay [2] concerns the target Serine/threonine-protein kinase pim-1 (Homo sapiens, UniProt P11309). Description: ATP Depletion Assay: The activity of PIM1 is measured using a luciferase-luciferin based ATP detection reagent to quantify ATP depletion resulting from kinase-catalyzed phosphoryl transfer to a peptide substrate. Compounds to be tested are dissolved in 100% DMSO and directly distributed into white 384-well plates at 0.5 uA per well. To start the reaction, 10 ul of 5 nM Pim1 kinase and 80 uM BAD peptide (RSRHSSYPAGT-OH) in assay buffer (50 mM HEPES pH 7.5, 5 mM MgCl2, 1 mM DTT, 0.05% BSA) is added into each well. After 15 minutes, 10 ul of 40 uM ATP in assay buffer is added. Final assay concentrations are 2.5 nM PIM1, 20 uM ATP, 40 uM BAD peptide and 2.5% DMSO. The reaction is performed until approximately 50% of the ATP is depleted, then stopped with the addition of 20 ul KinaseGlo Plus (Promega Corporation) solution. The stopped reaction is incubated for 10 minutes and the remaining ATP detected via luminescence on the Victor2 (Perkin Elmer). For orientation: Kinase-Glo reads ATP consumption through a luciferase reaction.

Assay [3] deals with Serine/threonine-protein kinase pim-2 (Homo sapiens, UniProt Q9P1W9). Nature of the assay: ATP Depletion Assay: The activity of PIM2 is measured using a luciferase-luciferin based ATP detection reagent to quantify ATP depletion resulting from kinase-catalyzed phosphoryl transfer to a peptide substrate. Compounds to be tested are dissolved in 100% DMSO and directly distributed into white 384-well plates at 0.5 ul per well. To start the reaction, 10 ul of 10 nM Pim2 kinase and 20 uM BAD peptide (RSRHSSYPAGT-OH) in assay buffer (50 mM HEPES pH 7.5, 5 mM MgCl2, 1 mM DTT, 0.05% BSA) is added into each well. After 15 minutes, 10 ul of 8 uM ATP in assay buffer is added. Final assay concentrations are 5 nM PIM2, 4 uM ATP, 10 uM BAD peptide and 2.5% DMSO. The reaction is performed until approximately 50% of the ATP is depleted, then stopped with the addition of 20 ul KinaseGlo Plus (Promega Corporation) solution. The stopped reaction is incubated for 10 minutes and the remaining ATP detected via luminescence on the Victor2 (Perkin Elmer).
Chain of Serine/threonine-protein kinase pim-2 (Q9P1W9 whole entry): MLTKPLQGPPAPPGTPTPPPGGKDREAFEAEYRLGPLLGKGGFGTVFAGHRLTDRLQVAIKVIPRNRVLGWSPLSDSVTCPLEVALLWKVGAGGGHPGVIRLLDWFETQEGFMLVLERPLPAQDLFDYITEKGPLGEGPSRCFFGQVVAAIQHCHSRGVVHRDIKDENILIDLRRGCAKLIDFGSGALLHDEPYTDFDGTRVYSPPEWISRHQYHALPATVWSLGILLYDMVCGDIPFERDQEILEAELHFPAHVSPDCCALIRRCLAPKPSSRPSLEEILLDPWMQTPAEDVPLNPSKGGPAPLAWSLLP

Chain of Serine/threonine-protein kinase pim-1 (P11309 whole entry): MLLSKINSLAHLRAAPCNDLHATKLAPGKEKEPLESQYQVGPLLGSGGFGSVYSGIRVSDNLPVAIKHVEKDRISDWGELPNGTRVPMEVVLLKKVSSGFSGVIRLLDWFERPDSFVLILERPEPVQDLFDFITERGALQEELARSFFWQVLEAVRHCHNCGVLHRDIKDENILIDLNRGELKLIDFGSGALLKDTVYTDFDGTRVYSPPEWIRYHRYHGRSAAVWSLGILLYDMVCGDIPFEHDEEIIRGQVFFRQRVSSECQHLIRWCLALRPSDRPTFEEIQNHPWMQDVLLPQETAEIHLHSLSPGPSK

For the molecule `N[C@H]1C[C@@H](O)CN(c2ccncc2Nc2cccc3ccc(-c4c(F)cccc4F)nc23)C1`, the IC50 stood at 0.061 µM in assay [1], 0.589 µM in assay [2] and 0.512 µM in assay [3].

For the molecule `N[C@H]1C[C@@H](CO)CN(c2ccncc2Nc2cccc3ccc(-c4c(F)cccc4F)nc23)C1`, the figures for the IC50 in assay [2] and in assay [3] were 0.796 µM and 0.286 µM, respectively.

As a reminder, the IC50 is the midpoint of a concentration-inhibition curve.

These data come from ChEMBL document CHEMBL3638844, “Heterocyclic kinase inhibitors” (2014).
